Source: article PMC10909431 (Journal of Peptide Science, 2023)
Like-named read-outs stand apart in the source and are kept apart here. Numbered stars: 1 amine (or outer) side, 2 acyl side, 3 side chain; on linkers, the order of the positions; unused ones are H or OH. Bridge positions count the residues as written; N and C are the ends. Square brackets hold non-standard residues; d marks the D form. Triazole bridges read from a SMILES are 1,4-linked. Ends that are not written are not given here. Peptide text beside a SMILES is read from it. Orn(N3) = [N-]=[N+]=NCCC[C@H](N)C(=O)O; S5 = C=CCCC[C@](C)(N)C(=O)O; X1 = c1c(C[*:2])nnn1CC[*:1]; Pra = C#CC[C@H](N)C(=O)O

Columns and labels:
IR‐A = target: T1, IR‐A (Homo sapiens, UniProt P06213); test: Receptor-binding: competition with [125I]-monoiodotyrosyl-TyrA14-insulin for IR-A in IM-9 cell membranes; settings: cell membranes of human IM-9 lymphocytes, each curve in duplicate, Kd from at least three binding curves, ± S.D., SD
T1 construct: for IR‐A in cell membranes of human IM‐9 lymphocytes (ATCC); host or cells: human IM-9 lymphocytes (cell membranes)
T1 sequence (P06213 28-1370 isoform P06213-2 limits assumed): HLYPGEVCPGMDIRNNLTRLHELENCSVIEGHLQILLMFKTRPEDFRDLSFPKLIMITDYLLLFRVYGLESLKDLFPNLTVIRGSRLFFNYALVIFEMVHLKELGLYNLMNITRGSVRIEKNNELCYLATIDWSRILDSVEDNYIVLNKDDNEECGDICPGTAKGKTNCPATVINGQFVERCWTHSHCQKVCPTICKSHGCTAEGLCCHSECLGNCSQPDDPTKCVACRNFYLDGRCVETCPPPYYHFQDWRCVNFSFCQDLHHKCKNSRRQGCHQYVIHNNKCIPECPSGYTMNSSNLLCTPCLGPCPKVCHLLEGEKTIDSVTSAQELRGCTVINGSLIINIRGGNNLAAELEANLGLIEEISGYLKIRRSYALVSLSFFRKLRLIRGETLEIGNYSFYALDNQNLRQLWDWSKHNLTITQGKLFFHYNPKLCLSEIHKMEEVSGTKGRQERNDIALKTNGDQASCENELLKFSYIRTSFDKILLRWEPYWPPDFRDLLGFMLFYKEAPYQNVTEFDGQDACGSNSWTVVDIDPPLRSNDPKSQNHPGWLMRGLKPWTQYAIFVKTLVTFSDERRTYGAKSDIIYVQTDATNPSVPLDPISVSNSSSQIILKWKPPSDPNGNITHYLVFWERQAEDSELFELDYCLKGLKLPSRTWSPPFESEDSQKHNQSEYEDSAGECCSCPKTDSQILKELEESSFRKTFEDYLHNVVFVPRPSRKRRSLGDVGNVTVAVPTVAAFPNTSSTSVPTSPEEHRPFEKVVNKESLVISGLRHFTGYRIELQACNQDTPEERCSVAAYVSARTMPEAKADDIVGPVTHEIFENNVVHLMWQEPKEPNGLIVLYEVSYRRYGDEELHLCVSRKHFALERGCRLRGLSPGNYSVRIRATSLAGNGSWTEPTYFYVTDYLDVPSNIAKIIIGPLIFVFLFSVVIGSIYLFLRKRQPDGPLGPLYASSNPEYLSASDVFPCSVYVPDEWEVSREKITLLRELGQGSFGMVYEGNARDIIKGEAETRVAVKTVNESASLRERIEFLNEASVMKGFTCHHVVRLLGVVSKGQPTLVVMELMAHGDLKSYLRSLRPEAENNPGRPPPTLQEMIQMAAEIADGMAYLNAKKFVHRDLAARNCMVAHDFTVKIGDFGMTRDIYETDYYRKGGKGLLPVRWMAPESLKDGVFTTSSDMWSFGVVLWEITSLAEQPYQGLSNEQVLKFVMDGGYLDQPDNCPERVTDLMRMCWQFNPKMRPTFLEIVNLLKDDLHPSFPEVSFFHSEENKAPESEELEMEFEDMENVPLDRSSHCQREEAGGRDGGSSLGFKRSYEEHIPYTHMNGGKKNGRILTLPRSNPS
T1 sequence (P06213 763-1382 partner limits assumed): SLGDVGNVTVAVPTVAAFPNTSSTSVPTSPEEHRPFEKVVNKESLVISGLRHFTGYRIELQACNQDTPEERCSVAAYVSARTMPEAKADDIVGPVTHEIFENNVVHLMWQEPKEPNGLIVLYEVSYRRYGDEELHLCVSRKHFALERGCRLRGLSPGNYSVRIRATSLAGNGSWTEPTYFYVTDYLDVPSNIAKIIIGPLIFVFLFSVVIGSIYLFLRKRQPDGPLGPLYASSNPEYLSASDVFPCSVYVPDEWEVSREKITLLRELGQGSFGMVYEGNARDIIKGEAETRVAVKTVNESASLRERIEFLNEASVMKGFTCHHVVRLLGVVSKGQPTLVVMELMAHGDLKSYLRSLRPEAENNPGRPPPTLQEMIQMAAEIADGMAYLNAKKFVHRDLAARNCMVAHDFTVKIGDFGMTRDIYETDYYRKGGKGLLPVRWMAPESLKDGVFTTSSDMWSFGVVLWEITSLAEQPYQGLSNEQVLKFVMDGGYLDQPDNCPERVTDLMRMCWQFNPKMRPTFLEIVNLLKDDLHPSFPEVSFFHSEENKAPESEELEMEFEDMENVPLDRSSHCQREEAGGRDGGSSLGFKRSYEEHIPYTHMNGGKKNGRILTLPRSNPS
Experimental: The binding curve of each analog was determined in duplicate, and the final dissociation constant (K d) was calculated from at least three binding curves.

IR [1] = settings: cited from earlier work
Description: (§1) Scientific teams from Novo Nordisk A/S and Antyra, Inc., used the technique of expressing libraries of peptide sequences on the surface of bacteriophage and, by testing their binding affinities, discovered a number of peptides that bound very efficiently to IR while activating or inhibiting it.[19], [20]

[2] = test system: insulin effect on plasma glucose; settings: cited from earlier work
Description: as §1, with “[20] […] One of these peptides was […] or S592, which bound only to bindi ...” for “[20]”

[3] = test system: insulin‐stimulated lipogenesis in cells; settings: cited from earlier work
Description: as §1, with “[20] […] One of these peptides was […] or S592, which bound only to bindi ...” for “[20]”

IR [4] = settings: cited from earlier work; for agonistic or antagonistic activities: peptides tested separately

Question: For `CC[C@H](C)[C@H](NC(=O)[C@H](CCC(N)=O)NC(=O)[C@H](C)NC(=O)[C@H](Cc1c[nH]c2ccccc12)NC(=O)[C@H](CCC(=O)O)NC(=O)[C@H](CCC(=O)O)NC(=O)[C@H](CCC(=O)O)NC(=O)[C@H](CC(C)C)NC(=O)[C@@H](N)CO)C(=O)N[C@@H](CCC(=O)O)C(=O)N[C@H]1CSSC[C@@H](C(=O)N2CCC[C@H]2C(=O)N[C@@H](CO)C(N)=O)NC(=O)CNC(=O)[C@H](CCCNC(=N)N)NC(=O)CNC(=O)[C@H](Cc2c[nH]c3ccccc23)NC(=O)[C@H](C(C)C)NC(=O)[C@H](CCC(=O)O)NC1=O` [peptide 1] (H-SLEEEWAQIECEVWGRGCPS-NH2; disulfide 11-18), which Kd (IR‐A) is on record?
Answer: 3.9 ± 1 nM

Question: For `CC[C@H](C)[C@H](NC(=O)[C@H](CCC(N)=O)NC(=O)[C@H](C)NC(=O)[C@H](Cc1c[nH]c2ccccc12)NC(=O)[C@H](CCC(=O)O)NC(=O)[C@H](CCC(=O)O)NC(=O)[C@H](CCC(=O)O)NC(=O)[C@H](CC(C)C)NC(=O)[C@@H](N)CO)C(=O)N[C@@H](CCC(=O)O)C(=O)N[C@@]1(C)CCCC=CCCC[C@@](C)(C(=O)N2CCC[C@H]2C(=O)N[C@@H](CO)C(N)=O)NC(=O)CNC(=O)[C@H](CCCNC(=N)N)NC(=O)CNC(=O)[C@H](Cc2c[nH]c3ccccc23)NC(=O)[C@H](C(C)C)NC(=O)[C@H](CCC(=O)O)NC1=O` [peptide 2] (H-SLEEEWAQIE[S5]EVWGRG[S5]PS-NH2; staple 11-18), which Kd (IR‐A) is on record?
Answer: 49 ± 6 nM

Question: Which Kd (IR‐A) does the source give for `CC[C@H](C)[C@H](NC(=O)[C@H](CCC(N)=O)NC(=O)[C@H](C)NC(=O)[C@H](Cc1c[nH]c2ccccc12)NC(=O)[C@H](CCC(=O)O)NC(=O)[C@H](CCC(=O)O)NC(=O)[C@H](CCC(=O)O)NC(=O)[C@H](CC(C)C)NC(=O)[C@@H](N)CO)C(=O)N[C@@H](CCC(=O)O)C(=O)N[C@H]1CCCn2cc(nn2)C[C@@H](C(=O)N2CCC[C@H]2C(=O)N[C@@H](CO)C(N)=O)NC(=O)CNC(=O)[C@H](CCCNC(=N)N)NC(=O)CNC(=O)[C@H](Cc2c[nH]c3ccccc23)NC(=O)[C@H](C(C)C)NC(=O)[C@H](CCC(=O)O)NC1=O` [peptide 3] (H-SLEEEWAQIE[Orn(N3)]EVWGRG[Pra]PS-NH2; triazole 11-18) here?
Answer: 15 ± 3 nM

Question: With `CC[C@H](C)[C@H](NC(=O)[C@H](CCC(N)=O)NC(=O)[C@H](C)NC(=O)[C@H](Cc1c[nH]c2ccccc12)NC(=O)[C@H](CCC(=O)O)NC(=O)[C@H](CCC(=O)O)NC(=O)[C@H](CCC(=O)O)NC(=O)[C@H](CC(C)C)NC(=O)[C@@H](N)CO)C(=O)N[C@@H](CCC(=O)O)C(=O)N[C@H]1CSCCn2cc(nn2)CSC[C@@H](C(=O)N2CCC[C@H]2C(=O)N[C@@H](CO)C(N)=O)NC(=O)CNC(=O)[C@H](CCCNC(=N)N)NC(=O)CNC(=O)[C@H](Cc2c[nH]c3ccccc23)NC(=O)[C@H](C(C)C)NC(=O)[C@H](CCC(=O)O)NC1=O` [peptide 4] (H-SLEEEWAQIECEVWGRGCPS-NH2; linker 11-18 via X1) as the compound, how does the Kd (IR‐A) read?
Answer: 25 ± 7 nM

Question: Which Kd (IR‐A) does the source give for `CC[C@H](C)[C@H](NC(=O)[C@H](CCC(N)=O)NC(=O)[C@H](C)NC(=O)[C@H](Cc1c[nH]c2ccccc12)NC(=O)[C@H](CCC(=O)O)NC(=O)[C@H](CCC(=O)O)NC(=O)[C@H](CCC(=O)O)NC(=O)[C@H](CC(C)C)NC(=O)[C@@H](N)CO)C(=O)N[C@@H](CCC(=O)O)C(=O)N[C@H]1CSCCn2cc(nn2)COC[C@@H](C(=O)N2CCC[C@H]2C(=O)N[C@@H](CO)C(N)=O)NC(=O)CNC(=O)[C@H](CCCNC(=N)N)NC(=O)CNC(=O)[C@H](Cc2c[nH]c3ccccc23)NC(=O)[C@H](C(C)C)NC(=O)[C@H](CCC(=O)O)NC1=O` [peptide 5] (H-SLEEEWAQIECEVWGRGSPS-NH2; linker 11-18 via X1) here?
Answer: 75 ± 29 nM

Question: For “#SLEEEWAQIE C EVYGR C PPSES‐amide (disulfide) [IM172N22, peptide representing the Site 2 part of IM459]”, which Kd (IR [1]; read-out: binding affinity) is on record?
Answer: 3.1 nM

Question: Which “ability to activate IR” value (IR [1]) does the source give for “#SLEQEWaKIE C EVYGK C PPKKAyKWFERQLK‐amide (disulfide) [IM459, variant of S519 with several modifications, IR agonist]” here?
Answer: retains the ability to activate IR (agonist)

Question: Which results are given for “GSLDESFYDWFERQLGGGSGGSSLEEEWAQIQ C EVWGRG C PSY (disulfide) [S961, Site 1–linker–Site 2 fusion peptide with free C-terminus, IR antagonist]”?
Answer: binding affinities for IR (IR [1]): native insulin‐like binding affinities; inhibition of the insulin effect on plasma glucose in mice [2]: fully inhibit; inhibition of insulin‐stimulated lipogenesis in cells [3]: fully inhibit

Question: For “GSLDESFYDWFERQLGGGSGGSSLEEEWAQIQ C EVWGRG C PSY‐amide (disulfide) [S661, Site 1–linker–Site 2 fusion peptide with amidated C-terminus, IR antagonist]”, which “binding affinities for IR” value (IR [1]) is on record?
Answer: native insulin‐like binding affinities

Question: And the “inhibition of the insulin effect on plasma glucose in mice” value [2]?
Answer: fully inhibit

Question: And the “inhibition of insulin‐stimulated lipogenesis in cells” value [3]?
Answer: fully inhibit

Question: With “GSLDESFYDWFERQLGGGSGGSSLEEEWAQIQSEVWGRGSPSY-NH2 [Cys → Ser in S661, S661 variant with cysteines mutated to serines, without the disulfide bridge]” as the compound, how does the “change of antagonistic activity versus S661” value (IR [4]; inhibition of insulin-stimulated IR phosphorylation in cells) read?
Answer: eightfold decrease

Question: For GSLDESFYDWFERQLGKK [S371], which “agonistic or antagonistic activities” value (IR [4]) is on record?
Answer: did not detect any agonistic or antagonistic activities

Question: For “SLEEEWAQ-NH2 [N-terminal segment peptide of the Site 2 mimetics, without the cyclized part]”, which Kd (IR [1]; read-out: binding affinity) is on record?
Answer: 900 nM

Question: With “SLEEEWAQIE C EVWGRG C PSY (disulfide) [S592]” as the compound, how does the “activation of the receptor” value (IR [1]) read?
Answer: does not activate the receptor

Question: And the Kd (IR [1]; read-out: K d for binding to the IR)?
Answer: 1.7 nM

Question: What does the source list for “SLEEEWAQIQSEVWGRGSPSYC [Cys → Ser in S592, Site 2 peptide with Cys-to-Ser mutations produced by Brandt et al]”?
Answer: insulin signal remaining (IR [4]; 1 nM insulin, peptide at the concentration 100 nM): 50–60%; agonistic or antagonistic activities (IR [4]): did not detect any agonistic or antagonistic activities

Question: Which “agonism / antagonism of IR” value (IR [1]) does the source give for “SLEEEWAQVE C EVYGRG C PSGSLDESFYDWFERQLG (disulfide) [S519, Site 2–Site 1 fusion peptide, IR agonist]” here?
Answer: did not show antagonistic effects and instead agonized IR

Question: What about the “binding to IR” value (IR [1]) of the same compound?
Answer: very high affinity
